Reference: ChEMBL document CHEMBL1201862, “PubChem BioAssay data set” (2004)
Activity calls are given as the source filed them.

Tests used:
[1] = biological target: T1, Adenosylmethionine-8-amino-7-oxononanoate aminotransferase (Mycobacterium tuberculosis, UniProt P9WQ81); test: Mycobacterium tuberculosis BioA enzyme inhibitor Measured in Biochemical System Using Plate Reader - 2163-02_Inhibitor_Dose_CherryPick_Activity.; type: functional, Mycobacterium tuberculosis UT205
T1 sequence (P9WQ81 whole entry): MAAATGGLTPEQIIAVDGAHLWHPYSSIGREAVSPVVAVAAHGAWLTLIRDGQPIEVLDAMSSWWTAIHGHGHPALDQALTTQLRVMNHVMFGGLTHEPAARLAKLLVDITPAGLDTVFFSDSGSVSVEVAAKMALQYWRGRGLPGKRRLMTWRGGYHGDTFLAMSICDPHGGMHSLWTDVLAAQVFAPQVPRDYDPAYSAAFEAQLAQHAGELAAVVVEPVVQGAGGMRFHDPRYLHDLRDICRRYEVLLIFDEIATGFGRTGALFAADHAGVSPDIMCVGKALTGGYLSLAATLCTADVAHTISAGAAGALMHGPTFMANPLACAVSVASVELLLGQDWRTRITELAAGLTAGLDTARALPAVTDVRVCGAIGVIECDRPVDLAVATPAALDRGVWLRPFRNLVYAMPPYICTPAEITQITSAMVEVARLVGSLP

Genome polyprotein = Genome polyprotein (dengue virus type 2, UniProt P29990); test: Dengue-2 NS5 methyltransferase inhibitors, primary screen, biochemical, confirmation dose response (AID 588689); type: functional
Genome polyprotein, sequence (P29990 2492-3391 limits assumed): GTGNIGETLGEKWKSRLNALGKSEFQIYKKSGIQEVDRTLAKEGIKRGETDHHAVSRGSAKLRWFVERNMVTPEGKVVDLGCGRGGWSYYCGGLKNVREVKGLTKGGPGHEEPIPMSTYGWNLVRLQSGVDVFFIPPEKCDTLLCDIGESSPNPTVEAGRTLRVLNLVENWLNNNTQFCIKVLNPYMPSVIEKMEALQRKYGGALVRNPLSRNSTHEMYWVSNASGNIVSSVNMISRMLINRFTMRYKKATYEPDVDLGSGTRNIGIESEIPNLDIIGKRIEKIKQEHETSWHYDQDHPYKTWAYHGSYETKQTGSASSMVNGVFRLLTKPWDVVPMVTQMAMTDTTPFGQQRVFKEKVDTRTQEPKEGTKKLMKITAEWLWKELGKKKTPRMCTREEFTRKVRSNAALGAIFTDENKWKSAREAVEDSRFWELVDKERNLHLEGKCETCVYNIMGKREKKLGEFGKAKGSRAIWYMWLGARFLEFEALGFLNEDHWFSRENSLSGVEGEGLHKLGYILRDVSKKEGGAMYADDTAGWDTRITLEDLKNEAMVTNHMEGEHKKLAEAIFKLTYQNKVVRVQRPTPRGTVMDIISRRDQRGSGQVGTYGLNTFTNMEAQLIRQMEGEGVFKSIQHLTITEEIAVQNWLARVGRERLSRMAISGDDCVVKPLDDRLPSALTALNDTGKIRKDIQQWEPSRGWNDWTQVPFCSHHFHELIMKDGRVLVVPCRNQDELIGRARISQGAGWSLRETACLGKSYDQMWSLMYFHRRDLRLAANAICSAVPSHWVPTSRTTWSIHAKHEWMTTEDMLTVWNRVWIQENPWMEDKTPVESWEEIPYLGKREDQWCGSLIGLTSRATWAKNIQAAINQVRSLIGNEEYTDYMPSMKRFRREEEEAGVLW

P388 = test: cells; type: functional; conditions: Mus musculus
P388/ADR = test: cells; type: functional; conditions: Mus musculus
SN12K1 = test: cells; type: functional; conditions: Homo sapiens
cells [2] = type: functional, cell-based
cells [3] = type: functional, cell-based; remark: listed apart in the source
[4] = LGR2 antagonists, dose response, cell-based, HEK293, CRE-luciferase reporter, cherry pick, set 2 (AID 743343); type: functional;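 also: transfected cells were stimulated with diluted bursicon conditioned medium after compound addition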
[5] = MC4R antagonists, dose response, counter-screen for LGR2 antagonist project, cell-based, plate reader, cherry pick (AID 743444); type: functional;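 also: transfected HEK 293 cells stimulated with alpha-MSH peptide; potency of inhibitors of the alpha-MSH evoked signal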
Streptokinase A = biological target: T2, Streptokinase A (Streptococcus pyogenes serotype M1, UniProt P10520); test: S. pyogenes streptokinase expression inhibitors, potency, dose response, plasminogen activation absorbance, OD405 (AID 1914); type: functional, Streptococcus pyogenes M1 GAS;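 also: secreted streptokinase activity via plasminogen activation per viability signal from cell pellet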
T2 sequence (P10520 whole entry): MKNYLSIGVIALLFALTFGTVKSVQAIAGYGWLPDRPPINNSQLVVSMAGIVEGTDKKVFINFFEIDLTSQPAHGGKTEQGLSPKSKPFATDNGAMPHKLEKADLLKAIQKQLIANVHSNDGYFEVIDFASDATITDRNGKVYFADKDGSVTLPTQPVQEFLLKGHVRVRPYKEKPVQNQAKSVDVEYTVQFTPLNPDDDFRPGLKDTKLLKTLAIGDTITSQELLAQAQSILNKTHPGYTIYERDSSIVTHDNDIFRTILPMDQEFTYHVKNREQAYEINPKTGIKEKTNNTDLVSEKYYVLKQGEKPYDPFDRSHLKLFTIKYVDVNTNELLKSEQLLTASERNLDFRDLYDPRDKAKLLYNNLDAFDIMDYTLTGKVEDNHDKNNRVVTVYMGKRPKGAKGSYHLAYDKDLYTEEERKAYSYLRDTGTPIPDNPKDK

[6] = cytotoxicity toward NIH3T3 fibroblasts, dose response, counter-screen, cell-based, ATP luminescence, mouse fibroblasts (AID 2010); type: functional;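 also: cells exposed to compound for about 90 hours before reading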
[7] = inhibitors of intracellular T. cruzi replication, confirmation, NIH3T3 host cells, beta-gal luminescence (AID 2044); type: functional, cell-based;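 also: intracellular parasites grown in NIH/3T3 mouse fibroblasts as host cells; luminescent beta-galactosidase reporter signal from transgenic T. cruzi replicating inside host cells; inhibitors lower the luminescence signal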
Nonstructural protein 1 = Nonstructural protein 1 (Influenza A virus, UniProt Q194T2); type: functional, Influenza A virus (A/California/07/2009(H1N1))
Nonstructural protein 1, sequence (Q194T2 whole entry): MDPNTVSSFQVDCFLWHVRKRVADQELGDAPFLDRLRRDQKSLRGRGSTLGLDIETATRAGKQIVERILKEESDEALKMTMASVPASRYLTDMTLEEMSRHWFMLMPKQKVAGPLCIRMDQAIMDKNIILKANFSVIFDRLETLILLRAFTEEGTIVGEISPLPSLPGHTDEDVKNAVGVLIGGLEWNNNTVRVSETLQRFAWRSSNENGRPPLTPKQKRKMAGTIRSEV

[8] = test system: Streptococcus sp. 'group A'; test: growth inhibition of control SK(-) GAS strain, dose response, counter-screen for streptokinase expression inhibitor project, luminescence, kanamycin, BacTiterGlo, confirmation (AID 1900); type: functional, organism-based
Streptococcus = test: Group A Streptococcus viability loss, dose response, counter-screen for streptokinase expression inhibitor project, luminescence, BacTiterGlo (AID 1915); type: functional, organism-based;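 also: potency for reduction of bacterial viability or growth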
[9] = biological target: DNA dC->dU-editing enzyme APOBEC-3G (Homo sapiens, UniProt Q9HC16); test: Dose Response confirmation of small molecule APOBEC3G DNA Deaminase Inhibitors via a fluorescence-based single-stranded DNA deaminase assay. [Related pubchem assays (depositor defined):AID493012, AID493028]; type: functional
DNA dC->dU-editing enzyme APOBEC-3G, sequence (Q9HC16 whole entry): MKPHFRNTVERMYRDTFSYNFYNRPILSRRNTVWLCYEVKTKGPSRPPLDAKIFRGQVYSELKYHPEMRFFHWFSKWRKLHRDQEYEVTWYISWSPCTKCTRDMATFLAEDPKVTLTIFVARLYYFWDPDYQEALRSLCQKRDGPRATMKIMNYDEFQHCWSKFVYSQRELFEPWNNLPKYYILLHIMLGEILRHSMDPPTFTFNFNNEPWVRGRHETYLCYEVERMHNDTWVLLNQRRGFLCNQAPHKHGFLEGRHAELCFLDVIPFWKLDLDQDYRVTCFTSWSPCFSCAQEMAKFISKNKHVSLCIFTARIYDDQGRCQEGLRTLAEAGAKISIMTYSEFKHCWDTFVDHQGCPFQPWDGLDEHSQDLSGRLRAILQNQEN

cells [10] = type: functional
[11] = THP-1 cell cytotoxicity, dose response, cytotoxicity control for non-replicating M. tuberculosis project (AID 489025); type: functional
[12] = biological target: T3, DNA repair protein RAD52 homolog (Homo sapiens, UniProt P43351); type: functional, biochemical
T3 sequence (P43351 whole entry): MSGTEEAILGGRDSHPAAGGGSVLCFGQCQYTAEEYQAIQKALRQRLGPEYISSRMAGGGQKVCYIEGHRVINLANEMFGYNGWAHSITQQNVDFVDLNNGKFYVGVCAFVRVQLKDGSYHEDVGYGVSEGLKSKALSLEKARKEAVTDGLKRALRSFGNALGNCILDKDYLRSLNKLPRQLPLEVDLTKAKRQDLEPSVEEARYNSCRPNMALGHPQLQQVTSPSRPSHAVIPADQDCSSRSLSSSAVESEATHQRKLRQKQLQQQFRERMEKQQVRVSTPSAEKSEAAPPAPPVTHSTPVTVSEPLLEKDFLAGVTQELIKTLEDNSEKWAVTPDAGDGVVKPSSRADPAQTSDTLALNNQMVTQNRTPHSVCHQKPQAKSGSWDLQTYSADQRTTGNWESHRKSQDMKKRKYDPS

Paired box protein Pax-8 = Paired box protein Pax-8 (Homo sapiens, UniProt Q06710); test: inhibitors of PAX8-driven TPO luciferase reporter, dose response, RMG-I cells, cherry-pick (AID 687027); type: functional, cell-based;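 also: luciferase reporter driven by Pax8 target thyroperoxidase promoter measured by SteadyGlo luminescence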
Paired box protein Pax-8, sequence (Q06710 whole entry): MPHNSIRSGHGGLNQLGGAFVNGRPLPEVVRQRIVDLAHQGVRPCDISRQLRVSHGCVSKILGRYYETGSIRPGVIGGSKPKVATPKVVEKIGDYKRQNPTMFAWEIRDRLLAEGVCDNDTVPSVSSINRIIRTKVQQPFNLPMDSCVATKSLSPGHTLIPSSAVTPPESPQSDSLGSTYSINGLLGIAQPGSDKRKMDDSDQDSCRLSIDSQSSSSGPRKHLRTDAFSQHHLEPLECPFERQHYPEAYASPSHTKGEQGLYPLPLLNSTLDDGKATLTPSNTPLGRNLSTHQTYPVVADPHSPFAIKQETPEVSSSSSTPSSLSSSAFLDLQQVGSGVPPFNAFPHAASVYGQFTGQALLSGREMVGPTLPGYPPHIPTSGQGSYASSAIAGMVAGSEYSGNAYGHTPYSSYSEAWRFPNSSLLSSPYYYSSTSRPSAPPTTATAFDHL

[13] = NIH:OVCAR-3 ovarian cancer cell cytotoxicity, dose response, PAX8 inhibitor project, plate reader, dry powder samples (AID 743044); type: functional, cell-based
[14] = cytotoxicity in OVCAR8 ovarian cancer cells, dose response, PAX8 project, cell-based, plate reader, dry powder samples (AID 743197); type: functional; conditions: OVCAR-8

For Cc1nc2nc(SCC(=O)NCCCN3CCOCC3)nn2c(C)c1Cc1ccccc1, the AC50 [1] was 5.43 µM (active).

In the case of O=C(O)c1cccc(NS(=O)(=O)c2ccc(-c3ccc(S(=O)(=O)Nc4cccc(C(=O)O)c4)cc3)cc2)c1, the IC50 (Genome polyprotein) is reported as 49.5 µM (active).

In the case of CN1C(=O)NC(=O)/C(=C/c2ccc(C(=O)O)cc2)C1=O, the IC50 (Genome polyprotein) is reported as 85.1 µM (active).

With CC(Oc1ccc2c(-c3ccccc3)cc(=O)oc2c1)C(=O)NCc1ccccn1 (stereo not drawn) the AC50 [1] was 8.99 µM (active).

In the case of COc1ccc2c(c1)-c1nn(CCCN(C)C)c3ccc([N+](=O)[O-])c(c13)N2, the GI50 (P388) is reported as 0.163 µM (active), the GI50 (P388/ADR) is reported as 0.281 µM (active) and the GI50 (SN12K1) is reported as 0.119 µM (active).

For CC(=O)Nc1ccc(S(=O)(=O)Nc2ccc(S(=O)(=O)Nc3nccs3)cc2)cc1, the EC50 (cells [2]) was > 350 µM (not active) and the EC50 (cells [3]) was > 350 µM (not active).

For O=C(CSc1nncs1)N1c2ccccc2Sc2ccccc21, the AC50 [1] was 1.56 µM (active).

In the case of Cc1ccc(-c2nnc(-c3ccccc3Br)o2)cc1, the AC50 [4] is reported as 14.3 µM (active) and the AC50 [5] is reported as 20.3 µM (active).

In the case of Cn1cccc1C(=O)Nc1nc(-c2ccccn2)cs1, the EC50 (Streptokinase A) is reported as > 150 µM (not active), the EC50 [6] is reported as 4.47 µM (active) and the EC50 [7] is reported as 2.28 µM (active). The IC50 (Nonstructural protein 1) was 11 µM (active), the EC50 [8] was 18.4 µM (active) and the EC50 (Streptococcus) was 58.3 µM (active).

For Cn1c(-c2cc(Br)ccc2O)n[nH]c1=S, the IC50 [9] was 8.33 µM (active) and the EC50 (Streptokinase A) was > 150 µM (not active).

In the case of COc1ccc(OC)c(C2=Nn3c(nnc3-c3cc(C)[nH]n3)SC2)c1, the EC50 (cells [2]) is reported as > 350 µM (not active) and the EC50 (cells [3]) is reported as > 350 µM (not active).

With O=C1C=C(c2ccccc2)CC(c2cccs2)C1n1cnc([N+](=O)[O-])c1 (stereo not drawn) the EC50 (cells [2]) was > 350 µM (not active) and the EC50 (cells [3]) was > 350 µM (not active).

For CN(C)CC/C=C1/c2ccc(F)cc2Sc2ccc(Cl)cc21, the IC50 (cells [10]) was 18.6 µM (active), the CC50 [11] was 18.9 µM (active) and the AC50 [12] was 12.8 µM (active).

In the case of c1ccc(-c2cnnc(-c3ccccn3)n2)cc1, the IC50 (Nonstructural protein 1) is reported as 12.9 µM (active).

For O=S(=O)(c1ccc(Br)cc1)c1nc(-c2ccccc2)oc1NCCN1CCOCC1, the IC50 (Nonstructural protein 1) was > 100 µM (active).

For COc1ccc2c(c1)OCCc1cn[nH]c1-2, the GI50 (P388) was 32.5 µM (inactive), the GI50 (P388/ADR) was 34 µM (inactive) and the GI50 (SN12K1) was 38.2 µM (inactive).

For COC(=O)/C=c1/sc2nc3ccccc3n2c1=O, the IC50 [9] was 30.8 µM (active).

For C/C(=C/C(=O)Nc1ccccc1)Nc1onc(C)c1C, the GI50 (P388) was > 100 µM (inactive) and the GI50 (SN12K1) was > 100 µM (inactive).

For COc1ccc(/C(Cl)=C(\C=O)c2ccc(OC)c(OC)c2)cc1OC, the GI50 (P388) was 35.3 µM (inactive), the GI50 (P388/ADR) was 10.5 µM (inactive) and the GI50 (SN12K1) was 80.9 µM (inactive).

For CSc1nc2c(ncn2C2OC(CO)C(O)C(O)C2O)c(=O)[nH]1 (stereo not drawn), the GI50 (P388) was > 100 µM (inactive), the GI50 (P388/ADR) was > 10 µM (inactive) and the GI50 (SN12K1) was > 100 µM (inactive).

For O=C[C@@H](CO)O[C@H](C=O)n1cnc2c(=O)nc[nH]c21, the GI50 (P388) was 76 µM (inactive), the GI50 (P388/ADR) was 69.2 µM (inactive) and the GI50 (SN12K1) was 284 µM (inactive).

For C/C=C/c1ccc2c(c1)O[C@@H](CN(C)C(=O)Cc1cccnc1)[C@H](C)CN([C@H](C)CO)S2(=O)=O, the AC50 [1] was 10.3 µM (active).

In the case of CN(C(=O)CSc1nc2ccccc2c(=O)n1-c1ccccc1Cl)C1CCS(=O)(=O)C1 (stereo not drawn), the AC50 [1] is reported as 2.22 µM (active).

In the case of C[C@@H]1CCCCO[C@H](CN(C)C(=O)Nc2ccc(F)cc2)[C@@H](C)CN([C@@H](C)CO)C(=O)c2cc(NS(=O)(=O)c3ccc(Cl)cc3)ccc2O1, the AC50 (Paired box protein Pax-8) is reported as 4.84 µM (active), the AC50 [13] is reported as 19.6 µM (active) and the AC50 [14] is reported as 35 µM (active).

In the case of COc1cccc(N[C@@H]2c3cc4c(cc3C(c3cc(OC)c(O)c(OC)c3)[C@H]3C(=O)OCC32)OCO4)c1 (stereo partly drawn), the GI50 (P388) is reported as < 0.01 µM (active), the GI50 (P388/ADR) is reported as 0.0635 µM (active) and the GI50 (SN12K1) is reported as 0.0615 µM (active).

For C=CCOc1ccccc1/C=c1\sc2nc(=O)c(C)nn2c1=O, the IC50 (Genome polyprotein) was 12.1 µM (active).
